According to patent US6531454B1, “Glycosylated polyamines and methods of use therefor” (The Regents of the University of California, priority 1999, dated 2003):

Legend:
Format in all cases: cell-based
MDA-MB-435 cells = experiment: In vitro tumor cell growth inhibition (cytotoxicity assay), breast cancer cell line; conditions: MDA-MB-435 breast cancer cells
Description: (§1) Cytotoxicity may be measured using a standard methodology for adherent cell lines such as the microculture tetrazolium assay (MTT). Details of this assay have been published (Alley, M C et al, Cancer Research 48:589-601, 1988). Exponentially growing cultures of tumor cells such as the HT-29 colon carcinoma or LX-1 lung tumor can be used to make microtiter plate cultures. Cells can be seeded at 5000-20,000 cells per well in 96-well plates (in 150 μl of media), and grown overnight at 37° C. Test compounds are added, in 10-fold dilutions varying from 10^−4 M to 10^−10 M.
(§2) Cells are then incubated for 48-72 hours. To determine the number of viable cells in each well, the MTT dye is added (50 μl of 3 mg/ml solution of 3-(4,5-dimethylthiazol-2-yl)-2,5-diphenyltetrazolium bromide in saline). This mixture is incubated at 37° C. for 5 hours, and then 50 μl of 25% SDS, pH 2 is added to each well. After an overnight incubation, the absorbance of each well at 550 mn is read using an ELISA reader. The values for the mean+/−SD of data from quadruplicate wells are calculated, using standard formula as for the %T/C (%viable cells treated/control). Additional methods as described by Inhibition of the growth of tumor cells was determined as described by Patil, S. D., et al J. Med. Chem., 32, 1284 (1989) may be used as well.
(§3) The concentration of test compound which gives a T/C of 50% growth inhibition is designated as the IC50.
(§4) Typically, the cells are grown in RPMI 1640 medium supplemented with 10 nM calcium leucovorin instead of folic acid as the folate source, 10% dialyzed fetal calf serum, penicillin and streptomycin. Additional ingredients may be added depending on the particular needs of the cells being cultured. […]
(§5) Cells are seeded into 96-well plates using a pipeting mechanism such as Perkin-Elmer Pro/pette. […] Inhibition of cell growth may be measured using the MTT dye reduction assay as described above.

[1] = test system: OVCAR-4 ovarian carcinoma cell lines; experiment: In vitro tumor cell growth inhibition (cytotoxicity assay), ovarian carcinoma cell line; conditions: OVCAR-4 ovarian carcinoma cells
Description: as §1, §2, §3, §4, §5

[2] = test system: CAKI-1 renal cancer cell lines; experiment: In vitro tumor cell growth inhibition (cytotoxicity assay), renal cancer cell line; conditions: CAKI-1 renal cancer cells
Description: as §1, §2, §3, §4, §5

[3] = test system: KM12 colon cancer cell lines; experiment: In vitro tumor cell growth inhibition (cytotoxicity assay), colon cancer cell line; conditions: KM12 colon cancer cells
Description: as §1, §2, §3, §4, §5

[4] = Homo sapiens, read-out: LC50 (the source's name)

Cl.OCC1OC(NCCNCCNC2OC(CO)C(O)C(O)C2O)C(O)C(O)C1O [Compound 1, 1,3-N,N-di-β-D-glucopyranosyl-diethylenetriamine]
GI50 (MDA-MB-435 cells; Homo sapiens, read-out: GI50 (inhibited growth by 50%)): 1.72 µM
LC50 (MDA-MB-435 cells; Homo sapiens, read-out: LC50 (lethal concentration to kill 50% of the cells)): ~6 µM
Total growth inhibition (TGI) (MDA-MB-435 cells): 3.23 µM
GI50 ([1]; Homo sapiens): 1.63 µM
CC50 [1, 4]: ~7.7 µM
TGI [1]: about 3.5 μM
TGI [2]: about 10 μM
GI50 ([2]; Homo sapiens): 3.1 µM
CC50 [2, 4]: 30 µM
GI50 ([3]; Homo sapiens): ~10 µM
CC50 [3, 4]: ~48 µM
TGI [3]: about 22 μM
